This is an account of results in patent publication US20110171300A1, “DELTA 9 TETRAHYDROCANNABINOL DERIVATIVES” ([…] LIMITED, priority 2007, published 2011).

A short description of data set [1]: Stability to light and air at ambient temperature. The class given is physicochemical.
For data set [2] the following is noted: air; cited from earlier work.

Molecules are shown by their SMILES.

For `CCCCCc1cc2c(c(OS(=O)(=O)C[C@]34CCC(CC3=O)C4(C)C)c1)[C@@H]1C=C(C)CC[C@H]1C(C)(C)O2` [Example 1, Δ9-THC (1S)-(+)-Camphorsulfonate], the Stability result in data set [1] was “Stable to light and air at ambient temperature”. Consider `CCCCCc1cc2c(c(OS(=O)(=O)c3cccs3)c1)[C@@H]1C=C(C)CC[C@H]1C(C)(C)O2` [Example 2, Δ9-THC 2-thiophene sulfonate], for which, in data set [1], the Stability result is “Stable to light and air at ambient temperature”. The same measure, in the same setting: the result for `CCCCCc1cc2c(c(OS(=O)(=O)CCC)c1)[C@@H]1C=C(C)CC[C@H]1C(C)(C)O2` [Example 3, Δ9-THC n-propyl sulfonate] reads “Stable to light and air at ambient temperature”; that for `CCCCCc1cc2c(c(OS(=O)(=O)CCCCl)c1)[C@@H]1C=C(C)CC[C@H]1C(C)(C)O2` [Example 4, Δ9-THC 3-chloropropyl sulfonate], “Stable to light and air at ambient temperature”. In the case of `CCCCCc1cc(O)c2c(c1)OC(C)(C)[C@@H]1CCC(C)=C[C@@H]21` [Δ9-THC, Δ9-tetrahydrocannabinol], the “Stability at room temperature” value in data set [2] is listed as “relatively unstable”.
